# Results taken from publication PMC6197257 (Scientific Reports, 2018).
# Key:
# rat 11β-HSD2 = biological target: T1, rat 11β-HSD2 (Rattus norvegicus, UniProt P50233); assay: in vitro 11β-HSD2 activity using rat kidney microsomes; type: biochemical
# T1 construct: kidney microsome fractions were obtained from male Wistar rats (7-week-old); from tissue; host or cells: rat kidney microsome fraction (male Wistar rats)
# T1 sequence (P50233 1-400): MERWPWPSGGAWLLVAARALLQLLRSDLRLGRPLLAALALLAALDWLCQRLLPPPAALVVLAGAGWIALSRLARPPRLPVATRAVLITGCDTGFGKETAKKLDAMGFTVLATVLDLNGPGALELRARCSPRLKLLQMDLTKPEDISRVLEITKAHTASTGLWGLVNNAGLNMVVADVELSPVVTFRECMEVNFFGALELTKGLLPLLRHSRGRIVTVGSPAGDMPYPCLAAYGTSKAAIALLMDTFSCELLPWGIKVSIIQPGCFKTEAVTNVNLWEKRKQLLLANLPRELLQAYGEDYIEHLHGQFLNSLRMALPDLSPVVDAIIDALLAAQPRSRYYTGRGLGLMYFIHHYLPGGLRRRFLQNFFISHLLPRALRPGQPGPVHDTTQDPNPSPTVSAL
# Experimental: Assays were conducted as described by Diederich et al.[23] with slight modifications as described in our previous study. Briefly, kidney microsome fractions were obtained from male Wistar rats (7-week-old). The microsome fraction (1.0 mg protein) was then incubated at 37 °C for 30 min in a reaction mixture containing 50 nM [1,2,6,7-^3H] cortisol, 1 mM NAD^+, and samples in […] 0.1 M phosphate buffer (pH 6.0). The reaction was terminated by adding 250 µl EtOH containing 1.25 mg cortisol and 1.25 mg cortisone. A 10 µl aliquot of the solution was spotted onto a silica gel 60 F254 plate and was developed with chloroform:MeOH (9:1). Spots corresponding to cortisone (Rf value, 0.43) were detected under UV light, scraped into a scintillation vial containing Clear-sol®, and the radioactivity was measured using a liquid scintillation counter (Hitachi Aloka Medical, Tokyo, Japan). The IC50 was calculated from the least square regression line made from 3 points that crossed 50% of the control logarithmic concentration values.
# OAT1 = biological target: T2, OAT1 (Homo sapiens, UniProt Q4U2R8); assay: uptake by MDCK II cells stably expressing OAT1; type: in vitro ADME; settings: pooled plasma of male EHBRs (79 µM compound 1), pH 5.5, 37 °C, 15 min
# T2 construct: expressed in transfected cells
# T2 sequence (Q4U2R8 1-563): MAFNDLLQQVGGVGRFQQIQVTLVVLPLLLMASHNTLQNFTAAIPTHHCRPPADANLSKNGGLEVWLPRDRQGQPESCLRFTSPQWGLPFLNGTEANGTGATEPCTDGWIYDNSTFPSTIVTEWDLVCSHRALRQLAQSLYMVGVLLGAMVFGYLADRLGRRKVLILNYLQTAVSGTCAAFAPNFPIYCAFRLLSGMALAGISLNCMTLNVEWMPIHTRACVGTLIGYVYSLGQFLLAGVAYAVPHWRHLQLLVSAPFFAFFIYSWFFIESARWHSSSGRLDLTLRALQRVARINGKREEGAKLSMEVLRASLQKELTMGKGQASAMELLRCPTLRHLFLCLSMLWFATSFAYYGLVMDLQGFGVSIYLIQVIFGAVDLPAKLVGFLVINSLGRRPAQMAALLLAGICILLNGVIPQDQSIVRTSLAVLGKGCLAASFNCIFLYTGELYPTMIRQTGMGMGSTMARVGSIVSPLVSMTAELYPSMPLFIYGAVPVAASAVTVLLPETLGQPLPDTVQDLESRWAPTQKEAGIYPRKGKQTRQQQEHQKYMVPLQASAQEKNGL
# Experimental: MDCKII cells were cultured in Dulbecco’s modified Eagle’s medium containing 10% FBS, 100 U/ml penicillin, and 100 µg/ml streptomycin at 37 °C in 5% CO2. Plasmids carrying the cDNAs encoding human organic anion transporter (OAT) 1 and 3 were prepared using the pCI-neo mammalian expression vector, as described previously. Using the plasmids, MDCKII cells stably expressing OAT1 and 3 were prepared as described previously, and tested for their functional expressions by evaluating the transports of [^3H]p-aminohippurate and [^3H]estrone sulfate, respectively, as probe substrates.
# For the transport assay, the cells were seeded in 24-well plates (1 × 10^5 cells/well), and incubated for 24 h. The cells were pre-incubated for 15 min at 37 °C with 0.25 ml of the incubation medium described above. Two ml of pooled female or male EHBR plasma samples was lyophilized, and dissolved in 2 ml of 10 mM MES (pH 5.5). The cells were then incubated further at 37 °C for 15 min with 0.1 ml of pooled female or male EHBR plasma samples. The surface of the cells was washed 3 times with 0.5 ml of ice-cold PBS, and then the contents were extracted with 0.2 ml of ethanol. The cell residues were dissolved by 0.1 ml of 1 M NaOH, and after neutralization by adding 0.1 ml of 1 M HCl, the concentrations of protein were measured as mentioned above.
# serum albumin = assay: binding assay with serum albumin (ultrafiltration of pooled plasma); type: in vitro ADME, rat; settings: pooled plasma of EHBRs, filtrate undetectable by LC-MS/MS
# Experimental: In total 100 µl of pooled plasma samples from female EHBRs described above were ultra-centrifugated using Centricut W-20 (Molecular weight cut off 2 × 10^4, Kurabo Industries Ltd., Osaka, Japan) according to the manufacturer’s instruction, and the concentration of compound 1 in the filtrate was measured by using LC-MS/MS described in uptake study section.
smiles,measurement,setting,value
"CC1(C(=O)OC2OC(C(=O)O)C(O)C(O)C2O)CC(O)C2(C)CCC3(C)C(=CC(=O)C4C5(C)CCC(OS(=O)(=O)O)C(C)(C)C5CCC43C)C2C1 (stereo not drawn) [Compound 1, 22α-hydroxy-18β-glycyrrhetyl-3-O-sulfate-30-glucuronide]","potency on 11β-HSD2, times lower than that of 3MGA and GA",rat 11β-HSD2; IC50 of compound 1 compared with 3MGA and GA,about 10 times
same,IC50,"rat 11β-HSD2; kidney microsomes of male Wistar rats, 37 °C, 30 min",2000 nM
same,uptake by cells expressing OAT1 compared with mock cells,OAT1,higher than that by mock cells
same,albumin-binding ratio in plasma,serum albumin,more than 99.9%
